Counter-ions that a name gives are not always drawn.
Tests used:
[1] = Dissolution measurement assay (apparent solubility, non-sink) in FaSSIF solution (pH 6.5); conditions: for AUC/ 80 min. Mg/min/L: Area Under the Curve during 80 minutes dissolution in FaSSIF solution (pH 6.5)
Method: The medium was prepared in accordance with the manufacturer's instructions. The amount of powder added depends on the wished “total PKI concentration”. […] For other experiments, the drug load was first estimated by HPLC and the amount of powder to obtain the drug concentration was calculated.
Typically, the powder was added in a 8 mL glass bottle and 7 mL of solution was added (typically FaSSIF, FeSSIF or SGF). The glass bottle was put on a shaker (approximately 1 rotation per minute) for dissolution. Samples of 500 μl where taken after different times, and subsequently centrifuged at approximately 15000 g for 3 minutes. The resulting supernatant was then analyzed by HPLC (C18 column Eclipse, 4.6 mm×15 cm, 1 mL/min, detection at […]. Generally samples were taken after 5, 30 and 90 min and eventually 150 min.
(§1) A number of experiments were carried out, wherein nilotinib base or nilotinib HCl represented the protein kinase inhibitor. The experiments were carried out by measuring concentration of solubilized PKI (mg/L) after 5, 30 and 90 minutes dissolution in a solution at about pH 6.5, namely FaSSIF (Fasted State Simulated Intestinal Fluid). Further, experiments were carried out in an alternative solution at about pH 5, namely FeSSIF (Fed State Simulated Intestinal Fluid). Samples of the solution were taken at various time intervals and the amount of protein kinase inhibitor was measured by the dissolution measurement assay described above.
as §1, with “erlotinib” for “nilotinib base or nilotinib”, “PKI.” for “protein kinase inhibitor.”, “of” for “of solubilized”, “PKI” for “protein kinase inhibitor”
as §1, with “pazopanib” for “nilotinib base or nilotinib HCl”, “PKI.” for “protein kinase inhibitor.”, “of” for “of solubilized”, “PKI” for “protein kinase inhibitor”
(§2) A number of experiments were carried out, wherein lapatinib base or lapatinib ditosylate salt represented the PKI. The experiments were carried out by measuring concentration of PKI (mg/L) after 5, 30 and 90 minutes dissolution in a solution at about pH 6.5, namely FaSSIF (Fasted State Simulated Intestinal Fluid). Samples of the solution were taken at various time intervals and the amount of PKI was measured by the dissolution measurement assay described above.
as §2, with “gefitinib” for “lapatinib base or lapatinib ditosylate salt”, “3, 40” for “5, 30”, “80” for “90”
as §2, with “dasatinib” for “lapatinib base or lapatinib ditosylate salt”, “3, 40” for “5, 30”, “80” for “90”

[2] = Dissolution rate measurement in sink conditions, flow through cell system, FaSSIF, 37° C.; format: physicochemical; conditions: sink condition in FaSSIF; for Initial Dissolution Rate: initial slope of accumulated % solubilized vs time, 0 to 10 minutes, 37° C.
Method: Typically, said dissolution rate is measured by a flow through cell system in sink conditions, e.g., according to the US Pharmacopea (USP4). Dissolution measurement in sink conditions of hybrid nanoparticles may be measured in a method consisting of adding the wished amount of powder into a flow through cell system (SOTAX, Allschwill, Switzerland), mounting the cell onto its apparatus and then pumping the appropriate medium (typically FaSSIF, FeSSIF, SGF) through the powder. The temperature of the apparatus is typically set to 37° C. The amount of powder added into the cell depends on drug load of the powder: The exact amount of powder can be calculated from results obtained from drug load analysis of the powders. The PKI may be added into the flow through cell and a flow rate between 5 and 25 ml medium/min is pumped through the powder. […] Samples are typically taken after 0, 0.5, 1, 1.5, 2, 3, 4, 5, 6, 7, 8, 9, 10, 15, 20, 25, 30, 35 and 40 min from the moment the medium comes out from the flow through cell. The accumulated % solubilized of the amount of active substance added into the flow through cell can be calculated and plotted against time (min). The initial slope (“initial dissolution rate”, representing 0-10 minutes) of the graph may be estimated and taken as the dissolution rate of the material in sink condition at 37° C. in the given dissolution medium.
Typically, said dissolution rate is measured by a flow through cell system, for instance in sink conditions. […] The temperature of the apparatus is typically set to 37° C. The amount of powder added into the cell depends on drug load of the powder: The exact amount of powder can be calculated from results obtained from drug load analysis of the powders. The PKI may be added into the flow through cell and a flow rate between 5 and 25 ml medium/min is pumped through the powder. […] Samples are typically taken after 0, 0.5, 1, 1.5, 2, 3, 4, 5, 6, 7, 8, 9, 10, 15, 20, 25, 30, 35 and 40 min from the moment the medium comes out from the flow through cell. The accumulated % solubilized of the amount of active substance added into the flow through cell, can be calculated and plotted against time (min). The initial slope (“initial dissolution rate”, representing 0-10 minutes) of the graph can be estimated and taken as the dissolution rate of the material in sink condition at 37° C. in the given dissolution medium.
Dissolution measurement in sink conditions of compositions of the invention were measured in a method consisting of adding the wished amount of powder into a flow through cell system (SOTAX, Allschwill, Switzerland), mounting the cell onto its apparatus and then pumping the appropriate medium (typically FaSSIF, FeSSIF, SGF) through the powder. The temperature of the apparatus was set to 37° C. The amount of powder added into the cell depends on drug load of the powder: The exact amount of powder was calculated from results obtained from drug load analysis of the powders.
Typically, 3.5 to 7 mg PKI was added into the flow through cell and a flow rate between 8 and 16 ml medium/min (preferably about 8 ml medium/min) was pumped through the powder. One ml samples of the medium passing through the cell were collected at predetermined times. […] Samples were taken after 0, 0.5, 1, 1.5, 2, 3, 4, 5, 6, 7, 8, 9, 10, 15, 20, 25, 30, 35 and 40 min from the moment the medium comes out from the flow through cell. The accumulated % solubilized of the amount of active substance added into the flow through cell was calculated and plotted against time (min). The initial slope (“initial dissolution rate”) of the graph was estimated, as measured during 0 to 10 minutes, and taken as the dissolution rate of the material in sink condition at 37° C. in the given dissolution medium.

[3] = nilotinib HCl, FaSSIF solution (pH 6.5), after 30 minutes dissolution, HCl

COc1cc2ncnc(Nc3ccc(F)c(Cl)c3)c2cc1OCCCN1CCOCC1 [Exp 131, gefitinib]
AUC/ 80 min. Mg/min/L ([1]; gefitinib): 5967 Mg/min/L

Cc1nc(Nc2ncc(C(=O)Nc3c(C)cccc3Cl)s2)cc(N2CCN(CCO)CC2)n1 [Exp 138, dasatinib]
AUC/ 80 min. Mg/min/L ([1]; dasatinib): 2396 Mg/min/L
% solubilized 40 min. ([1]; dasatinib, after 40 minutes dissolution in FaSSIF solution (pH 6.5)): 6.0%

CS(=O)(=O)CCNCc1ccc(-c2ccc3ncnc(Nc4ccc(OCc5cccc(F)c5)c(Cl)c4)c3c2)o1 [Exp 110, lapatinib base]
Conc (mg/L) 5 min ([1]; lapatinib, 5 minutes dissolution in FaSSIF solution (pH 6.5)): 2.9 mg/L
Conc (mg/L) 30 min ([1]; lapatinib, 30 minutes dissolution in FaSSIF solution (pH 6.5)): 6.0 mg/L
Conc (mg/L) 90 min ([1]; lapatinib, 90 minutes dissolution in FaSSIF solution (pH 6.5)): 6.5 mg/L
AUC/ 90 min. Mg/min/L ([1]; lapatinib, Area Under the Curve during 90 minutes dissolution in FaSSIF solution (pH 6.5)): 494 Mg/min/L
% solubilized 30 min. ([1]; lapatinib, after 30 minutes dissolution in FaSSIF solution (pH 6.5)): 0.3%

CNC(=O)c1cc(Oc2ccc(NC(=O)Nc3ccc(Cl)c(C(F)(F)F)c3)cc2)ccn1.Cc1ccc(S(=O)(=O)O)cc1 [Experiment 560]
Accumulated % of solubilized of remaining active substance at a given time (min) ([2]; 0 min): 0.2%
Accumulated % of solubilized of remaining active substance at a given time (min) ([2]; 0.5 min): 0.4%
Accumulated % of solubilized of remaining active substance at a given time (min) ([2]; 1 min): 0.7%
Accumulated % of solubilized of remaining active substance at a given time (min) ([2]; 1.5 min): 1.0%
Accumulated % of solubilized of remaining active substance at a given time (min) ([2]; 2 min): 1.3%
Accumulated % of solubilized of remaining active substance at a given time (min) ([2]; 3 min): 1.8%
Accumulated % of solubilized of remaining active substance at a given time (min) ([2]; 4 min): 2.2%
Accumulated % of solubilized of remaining active substance at a given time (min) ([2]; 5 min): 2.6%
Accumulated % of solubilized of remaining active substance at a given time (min) ([2]; 6 min): 3.0%
Accumulated % of solubilized of remaining active substance at a given time (min) ([2]; 7 min): 3.4%
Accumulated % of solubilized of remaining active substance at a given time (min) ([2]; 8 min): 3.8%
Accumulated % of solubilized of remaining active substance at a given time (min) ([2]; 9 min): 4.2%
Accumulated % of solubilized of remaining active substance at a given time (min) ([2]; 10 min): 4.6%
Accumulated % of solubilized of remaining active substance at a given time (min) ([2]; 20 min): 8.8%

Cc1cn(-c2cc(NC(=O)c3ccc(C)c(Nc4nccc(-c5cccnc5)n4)c3)cc(C(F)(F)F)c2)cn1 [Exp 2, Nilotinib HCl]
% solubilized 30 min. [1, 3]: 0.04%

CNC(=O)c1cc(Oc2ccc(NC(=O)Nc3ccc(Cl)c(C(F)(F)F)c3)cc2)ccn1 [Exp 560, sorafenib tosylate]
Initial Dissolution Rate [2]: 0.47

COc1cc2ncnc(Nc3ccc(F)c(Cl)c3)c2cc1OCCCN1CCOCC1 [Exp 540, gefitinib]
Initial Dissolution Rate [2]: 2.2

Cc1ccc(Nc2nccc(N(C)c3ccc4c(C)n(C)nc4c3)n2)cc1S(N)(=O)=O [Exp 84, pazopanib]
% solubilized 30 min. ([1]; 30 min, pH 6.5): 2.4%
Conc (mg/L) 90 min ([1]; 90 min, pH 6.5): 15.0 mg/L

Cc1cn(-c2cc(NC(=O)c3ccc(C)c(Nc4nccc(-c5cccnc5)n4)c3)cc(C(F)(F)F)c2)cn1 [Exp 500, nilotinib HCl]
Initial Dissolution Rate [2]: 0.27

Cc1cn(-c2cc(NC(=O)c3ccc(C)c(Nc4nccc(-c5cccnc5)n4)c3)cc(C(F)(F)F)c2)cn1 [Exp 4, Nilotinib Base]
% solubilized 30 min. ([1]; nilotinib HCl, FaSSIF solution (pH 6.5), after 30 minutes dissolution): 0.50%

CCCS(=O)(=O)Nc1ccc(F)c(C(=O)c2c[nH]c3ncc(-c4ccc(Cl)cc4)cc23)c1F [Exp 164, vemurafenib]
Conc (mg/L) 3 min ([1]; pH 6.5): 0.3 mg/L
% solubilized 40 min. ([1]; 40 min, pH 6.5): 0.1%
Conc (mg/L) 40 min ([1]; 40 min, pH 6.5): 0.3 mg/L
Conc (mg/L) 80 min ([1]; pH 6.5): 0.4 mg/L

C#Cc1cccc(Nc2ncnc3cc(OCCOC)c(OCCOC)cc23)c1 [Exp 58, erlotinib HCl]
Conc (mg/L) 90 min ([1]; 90 min, pH 6.5): 4.6 mg/L
% solubilized 30 min. ([1]; erlotinib HCl, FaSSIF solution (pH 6.5), 30 min dissolution): 0.6%
AUC/ 90 min. ([1]; erlotinib HCl, FaSSIF solution (pH 6.5), AUC during 90 min dissolution): 837 Mg/min/L

C[C@@H](Oc1cc(-c2cnn(C3CCNCC3)c2)cnc1N)c1c(Cl)ccc(F)c1Cl [Exp 570, crizotinib]
Initial Dissolution Rate [2]: 6.6

Cc1cn(-c2cc(NC(=O)c3ccc(C)c(Nc4nccc(-c5cccnc5)n4)c3)cc(C(F)(F)F)c2)cn1 [Exp 3, Nilotinib HCl]
% solubilized 30 min. [1, 3]: 0.03%

CNC(=O)c1ccccc1Sc1ccc2c(/C=C/c3ccccn3)n[nH]c2c1 [Exp 157, axitinib]
Conc (mg/L) 3 min ([1]; pH 6.5): 0.6 mg/L
Conc (mg/L) 40 min ([1]; 40 min, pH 6.5): 0.6 mg/L
Conc (mg/L) 80 min ([1]; pH 6.5): 0.6 mg/L
AUC/ 80 min. Mg/min/L ([1]; axitinib): 4.7 Mg/min/L
% solubilized 40 min. ([1]; axitinib, after 40 minutes dissolution in FaSSIF solution (pH 6.5)): 0.1%

Cc1cn(-c2cc(NC(=O)c3ccc(C)c(Nc4nccc(-c5cccnc5)n4)c3)cc(C(F)(F)F)c2)cn1 [Exp 1, Nilotinib HCl]
% solubilized 30 min. [1, 3]: 0.20%
AUC/ 90 min. Mg/min/L ([1]; nilotinib, FaSSIF solution (pH 6.5), Area Under the Curve during 90 minutes dissolution, HCl): 13.0 Mg/min/L

CNC(=O)c1cc(Oc2ccc(NC(=O)Nc3ccc(Cl)c(C(F)(F)F)c3)cc2)ccn1 [Exp 142, sorafenib tosylate]
Conc (mg/L) 40 min ([1]; 40 min, pH 6.5): 343.51 mg/L

Source: US9456992B2 (XSPRAY MICROPARTICLES AB, priority 2012, dated 2016)
